SMILES strings stand for the structures.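 Tested at 5 concentrations; 48 h exposure; 96-well plates; endpoints linearly interpolated, else capped at highest concentration. TGI: total growth inhibition.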

For 14 compounds, TGI results are on record in PubChem BioAssay (NCI).

Test systems include A549 NSCLC; CAKI-1 renal; HCT-116 colon; HS 578T breast; IGROV1 ovarian; K-562 leukemia; KM12 colon; MCF7 breast; MDA-MB-435; NCI-H460 lung; OVCAR-8 ovarian; SF-539 CNS; MDA-N.
Holding throughout (experiment): NCI-60 cell line screen, 48 h

Consider `Nc1cc(Cl)ccc1SSc1ccc(Cl)cc1N`, for which the TGI is > 100 µM with A549 NSCLC; 35.7 µM in the test on CAKI-1 renal; 21.7 µM in the test with HCT-116 colon; 46.7 µM in the test with HS 578T breast; 25.5 µM in the test with IGROV1 ovarian; > 100 µM in the test with K-562 leukemia. Moreover, the TGI is 24.6 µM in the test with KM12 colon; 15.7 µM in the test on MCF7 breast; 25.9 µM with MDA-MB-435; 31.6 µM in the test on NCI-H460 lung; > 100 µM with OVCAR-8 ovarian; 31.5 µM in the test with SF-539 CNS.
On to `O=C(O)C12CCC(CC1=O)C2` (stereo not given), for which the TGI with A549 NSCLC, in the test with CAKI-1 renal, with HS 578T breast, with IGROV1 ovarian, with K-562 leukemia and with KM12 colon was > 100 µM in each case. In addition, the TGI in the test on MCF7 breast, with MDA-MB-435, with NCI-H460 lung and in the test on OVCAR-8 ovarian was > 100 µM each time.
As for `CN(C)C(=NC#N)N(Cc1ccccc1)Cc1ccccc1`, the TGI in the test on A549 NSCLC was > 100 µM; in the test with CAKI-1 renal it was > 100 µM; in the test on HCT-116 colon, > 100 µM; with IGROV1 ovarian, > 100 µM; in the test with K-562 leukemia, 50.9 µM; with KM12 colon it was > 100 µM. Further, the TGI in the test on NCI-H460 lung was 34 µM; in the test with OVCAR-8 ovarian, > 100 µM; in the test with SF-539 CNS it was > 100 µM.
In the case of `COc1cc(C2c3cc4c(cc3OC(NCCO)C2C)OCO4)cc(OC)c1O` (stereo not given), the TGI in the test with A549 NSCLC, in the test with CAKI-1 renal, in the test with HCT-116 colon, with IGROV1 ovarian, in the test with KM12 colon and in the test with MCF7 breast was > 100 µM throughout. Also, the TGI is 6.34 µM with MDA-MB-435, 4.56 µM in the test with MDA-N, > 100 µM with OVCAR-8 ovarian and 42.2 µM in the test on SF-539 CNS.
As to `CCCC(=O)OC[n+]1ccc(-c2c(COC(=O)NC(C)C)c(COC(=O)NC(C)C)c3n2CCC3)cc1`, the TGI in the test on A549 NSCLC, with CAKI-1 renal, in the test on HCT-116 colon, with HS 578T breast, in the test with IGROV1 ovarian and with K-562 leukemia was > 100 µM in each case. For the same compound, the TGI in the test with KM12 colon, with MCF7 breast, in the test on MDA-MB-435, with NCI-H460 lung, with OVCAR-8 ovarian and in the test on SF-539 CNS was > 100 µM each time.
In the case of `COc1ccccc1NC(=O)CC(=O)N1N=C(c2ccccc2)C(N=Nc2ccc(Cl)cc2)C1=O` (stereo not given), the TGI with A549 NSCLC, in the test with CAKI-1 renal, in the test on HCT-116 colon, with IGROV1 ovarian, with K-562 leukemia and in the test with KM12 colon was > 100 µM in each case. The TGI with NCI-H460 lung, in the test on OVCAR-8 ovarian and with SF-539 CNS was > 100 µM each time.
As for `Cc1ccc(-c2nnc3s/c(=C\c4ccc(N(C)C)cc4)c(=O)n23)cc1`, the TGI in the test with A549 NSCLC, in the test with CAKI-1 renal, in the test with HCT-116 colon, in the test with IGROV1 ovarian, with KM12 colon and with NCI-H460 lung was > 100 µM in each case. The TGI in the test with OVCAR-8 ovarian and with SF-539 CNS was > 100 µM each time.
Take `O=C(O)CCN(CCCN(CCC(=O)O)CCC(=O)O)CCC(=O)O`: the TGI with A549 NSCLC, in the test on CAKI-1 renal, with HCT-116 colon, in the test with IGROV1 ovarian, with K-562 leukemia and in the test on KM12 colon was > 100 µM each time. For the same compound, the TGI with NCI-H460 lung, with OVCAR-8 ovarian and with SF-539 CNS was > 100 µM throughout.
On to `COC(=O)C(c1ccc(OC)cc1)N1C(=O)[C@@H](NC(=O)c2ccccc2)[C@H]1[C@@H](C)O` (stereo not given in full), for which the TGI in the test on A549 NSCLC, with HCT-116 colon, in the test on IGROV1 ovarian, in the test on K-562 leukemia, in the test with KM12 colon and in the test on NCI-H460 lung was > 100 µM each time. Besides, the TGI in the test on OVCAR-8 ovarian and in the test with SF-539 CNS was > 100 µM throughout.
In the case of `O=C1C(c2ccccc2)=C(c2ccccc2)C(c2ccc(Sc3ccc(C4=C(c5ccccc5)C(=O)C(c5ccccc5)=C4c4ccccc4)cc3)cc2)=C1c1ccccc1`, the TGI in the test on A549 NSCLC, in the test with CAKI-1 renal, in the test on HCT-116 colon, with IGROV1 ovarian, in the test with K-562 leukemia and with KM12 colon was > 100 µM throughout. In addition, the TGI in the test with NCI-H460 lung, in the test with OVCAR-8 ovarian and with SF-539 CNS was > 100 µM throughout.
In the case of `NC(CCCCNCc1ccccc1)C(=O)O` (stereo not given), the TGI in the test on A549 NSCLC, in the test with CAKI-1 renal, in the test on HCT-116 colon, with IGROV1 ovarian, in the test with K-562 leukemia and with KM12 colon was > 100 µM throughout. Moreover, the TGI with NCI-H460 lung, in the test on OVCAR-8 ovarian and in the test on SF-539 CNS was > 100 µM each time.
For the compound `O=C(CC1(O)C(=O)Nc2c(Cl)cc(Cl)cc21)c1ccc(F)cc1` (stereo not given), the TGI in the test on A549 NSCLC was > 100 µM; with CAKI-1 renal, > 100 µM; in the test on HCT-116 colon, > 100 µM; in the test with IGROV1 ovarian it was 67.6 µM; in the test on KM12 colon it was > 100 µM; in the test on NCI-H460 lung, > 100 µM. Also, the values for the TGI in the test on OVCAR-8 ovarian and in the test on SF-539 CNS were 47.6 µM and 57.4 µM, respectively.
For the compound `CC(=O)NNc1nc(C)c(C(=O)/C=C/c2ccc(Cl)c(Cl)c2)s1`, the TGI with A549 NSCLC, in the test with CAKI-1 renal, with IGROV1 ovarian, in the test on K-562 leukemia, with KM12 colon and in the test with NCI-H460 lung was > 100 µM throughout. Besides, the TGI in the test with OVCAR-8 ovarian and with SF-539 CNS was > 100 µM in each case.
Take `NC(N)=NS(=O)(=O)c1ccc(NC(=O)c2cccc3c(N)c4ccccc4nc23)cc1`: the TGI with A549 NSCLC, with CAKI-1 renal, in the test with HCT-116 colon, with IGROV1 ovarian, in the test with K-562 leukemia and with KM12 colon was > 100 µM in each case. The TGI in the test on NCI-H460 lung, in the test on OVCAR-8 ovarian and in the test with SF-539 CNS was > 100 µM each time.
